Results: patent US20200024285A1, “NOVEL CHROMONE OXIME DERIVATIVE AND ITS USE AS ALLOSTERIC MODULATOR OF METABOTROPIC GLUTAMATE RECEPTORS” (Prexton Therapeutics SA, priority 2014, published 2020)
Read-outs that look alike come from different tables or passages of the source. Values belong to the compound of their own block, whether it stands above or below them.

Assays:
[1] = phase I metabolic stability, CL (r); assay type: in vitro ADME; details: rat
Procedure: (§1) The in vitro ADME profile of PXT002331 was also very similar with reference to phase I metabolic stability: CL (h/r): 55/101 μl/min/mg protein and intestinal absorption: CaCo-2 (A-B, pgp): 4.11.0.10-6 cm/s, no efflux.

[2] = test system: MPTP macaque model of Parkinson's disease; assay: MPTP macaque model of Parkinson's disease; assay type: in vivo, Macaca fascicularis
Procedure: FIGS. 5A-F: Evaluation of the anti-parkinsonian efficacy of PXT002331 in the 1-methyl-4-phenyl-1,2,3,6-tetrahydropyridine (MPTP) macaque model of Parkinson's disease (see Example 3). (A) PXT002331 as a stand-alone treatment; oral administration twice a day during 4 days, assessment of parkinsonian scores at day 4; data are mean+s.e.m. over 2 hours observation (n=7 per group; 1 of the 8 monkeys initially used was excluded); “Veh”=vehicle; “LD opt”=L-dopa optimal dose”; *=P<0.05 vs Veh; ***=P<0.001 vs Veh; statistical analysis: Friedman followed by Dunn's. (B) Combined treatment using PXT002331 (25 mg/kg)+low dose of L-dopa (4-9 mg/kg)−parkinsonism time course; oral administration twice a day during 4 days, assessment at day #4; L-dopa optimal dose (“LDopt”): >20 mg/kg; L-dopa suboptimal dose (“LDso”): 4-9 mg/kg; combined administration of L-dopa (suboptimal dose) and PXT002331: twice a day/4 days. […] (D) Combined treatment using PXT002331+low dose of L-dopa−dose-response evaluation for different doses of PXT002331; assessment of parkinsonian scores at day 4; “Veh”=vehicle; “low LD”=low dose of L-dopa; “LD opt”=optimal dose of L-dopa; *=P<0.05 vs low LD; statistical analysis: non-parametric one-way repeated, measures ANOVA (Friedman's test), followed by Dunn's multiple comparison; N=7. (E) Computerized locomotor activity in early-stage PD monkey model for PXT002331 in combination with L-dopa (low dose or optimal dose) upon oral administration; *=P<0.05 vs vehicle; **=P<0.01 vs vehicle; ***=P<0.001 vs vehicle; statistical analysis: Friedman followed by Dunnett's; N=5 (6 monkeys/1 excluded). (F) Combined treatment using PXT002331+optimal dose of L-dopa−disability score and dyskinesia score. The anti-parkinsonian efficacy of the compound of formula (I) according to the present invention (i.e., PXT002331) was evaluated in the 1-methyl-4-phenyl-1,2,3,6-tetrahydropyridine (MPTP) macaque model of Parkinson's disease (using macaques of the species Macaca fascicularis), which reproduces most of the clinical and pathological hallmarks of Parkinson's disease and is considered a “gold standard” (see Porras G et al., Cold Spring Harb Perspect Med., 2(3):a009308, 2012 and references cited therein for a general description of the MPTP model). […] In this experiment, PXT002331 was orally administered twice a day during a period of 4 days, and the parkinsonian score was assessed at day 4 over 2 hours of observation (data are mean values+standard error of the mean (s.e.m.); n=7 monkeys per group). The anti-parkinsonian efficacy of PXT002331 (25 mg/kg) was further evaluated in combination with low (suboptimal) doses of L-dopa (levodopa; 4-9 mg/kg) (see FIGS. 5B and 5C). Doses were orally administered twice a day during 4 days, and assessment of parkinsonian scores took place at day 4 (between 1 and 2 h after L-dopa administration, i.e., between 2 and 3 h after PXT002331 administration). […] The results of a dose-response evaluation of the combination of PXT002331 (at doses from 2 mg/kg to 100 mg/kg) with L-dopa (low dose) are shown in FIG. 5D (the assessment of parkinsonian scores took place at day 4). […] In this experiment, each monkey was equipped with a detector of movements and signals were collected with 24 light beams and a video track recorder in order to descriminate all types of movements. The locomotor activity was measured during 1 hour.

CaCo-2 = assay: intestinal absorption CaCo-2 (A-B, pgp); assay type: in vitro ADME
Procedure: as §1

human mGluR4 = human mGluR4 (Homo sapiens, UniProt Q14833); assay: calcium assay for agonistic and/or positive allosteric modulator activity on human mGluR4; assay type: cell-based
Procedure: The compound of formula (I) according to the invention (i.e., PXT002331) was tested for its agonistic and/or positive allosteric modulator activity on human mGluR4 using the calcium assay described in Example 171 of WO 2011/051478.

plasma protein binding = assay type: in vitro ADME; details: read-out: plasma protein binding, free fraction
[3] = phase I metabolic stability, CL (h); assay type: in vitro ADME; details: human
Procedure: as §1

[4] = test system: UGT (UDP-Glucuronosyl transferase); assay: in vitro glucuronidation in rat liver microsomes; assay type: in vitro ADME; details: in vitro in the presence of UGT
Procedure: (§2) Despite their similar oral absorption, PXT002331 has a higher brain/plasma ratio (6.5 versus 2.0 at T=1.5 h; see FIG. 4) leading to a 3-fold improvement in the brain AUC when compared to PXT001858. A posteriori, one potential hypothesis might rely on the difference of phase II conjugation in the intestine and liver during oral absorption. […] Nonetheless, this difference observed in vitro cannot by itself explain the unexpected advantageous PK results obtained with PXT002331. The results obtained in these experiments are furthermore summarized in Tables 1 to 3 below and in FIGS. 1 to 4.

[5] = in vivo pharmacokinetics in male Sprague-Dawley rats, plasma and brain; details: rat; for Kp at 1.5 h: brain, T = 1.5 h, read-out: Brain/Plasma ratio (T = 1.5 h); for Kp at 1.5 h / AUC(0-inf): po
Procedure: PXT002331 and PXT001858 were administered per os (p.o.) at 10 mg/kg to male Sprague-Dawley rats. Volume of administration was 10 ml/kg. In parallel, PXT002331 was also administered intravenously (i.v.) at 1 mg/kg, with a volume of administration of 2 ml/kg. Blood samples (200 μl) were collected at time ranging from 15 minutes to 24 hours for the p.o. administration and from 5 minutes to 24 hours for the i.v. administration in ice-cold tubes containing 0.2% K2EDTA. Tubes were centrifuged at 10,000 rpm for 5 minutes at 4° C. The plasma (supernatant) was separated in another tube and stored at −80° C. until analysis. Two groups of 3 animals were used for each route of administration: in one group, blood samples were collected to determine the kinetics of plasma exposure over a 24-hour period, and in the second group, blood and brain were collected at one terminal time point (0.5, 1.0, 1.5, 2.0, 4.0 hours) to determine the kinetics of brain exposure and brain/plasma ratio.
The respective parent compound (free base) was analysed in plasma samples and in brain homogenate using a LC-MS/MS method. Concentrations are expressed in ng/ml of plasma or in ng/g of brain tissue.
as §2

solubility in water = assay type: physicochemical; details: as hydrochloride salt
[6] = male, Sprague-Dawley, 10 mg/kg p.o.
[7] = male, Sprague-Dawley, plasma, 10 mg/kg p.o.

human mGluR4, sequence (Q14833 33-912): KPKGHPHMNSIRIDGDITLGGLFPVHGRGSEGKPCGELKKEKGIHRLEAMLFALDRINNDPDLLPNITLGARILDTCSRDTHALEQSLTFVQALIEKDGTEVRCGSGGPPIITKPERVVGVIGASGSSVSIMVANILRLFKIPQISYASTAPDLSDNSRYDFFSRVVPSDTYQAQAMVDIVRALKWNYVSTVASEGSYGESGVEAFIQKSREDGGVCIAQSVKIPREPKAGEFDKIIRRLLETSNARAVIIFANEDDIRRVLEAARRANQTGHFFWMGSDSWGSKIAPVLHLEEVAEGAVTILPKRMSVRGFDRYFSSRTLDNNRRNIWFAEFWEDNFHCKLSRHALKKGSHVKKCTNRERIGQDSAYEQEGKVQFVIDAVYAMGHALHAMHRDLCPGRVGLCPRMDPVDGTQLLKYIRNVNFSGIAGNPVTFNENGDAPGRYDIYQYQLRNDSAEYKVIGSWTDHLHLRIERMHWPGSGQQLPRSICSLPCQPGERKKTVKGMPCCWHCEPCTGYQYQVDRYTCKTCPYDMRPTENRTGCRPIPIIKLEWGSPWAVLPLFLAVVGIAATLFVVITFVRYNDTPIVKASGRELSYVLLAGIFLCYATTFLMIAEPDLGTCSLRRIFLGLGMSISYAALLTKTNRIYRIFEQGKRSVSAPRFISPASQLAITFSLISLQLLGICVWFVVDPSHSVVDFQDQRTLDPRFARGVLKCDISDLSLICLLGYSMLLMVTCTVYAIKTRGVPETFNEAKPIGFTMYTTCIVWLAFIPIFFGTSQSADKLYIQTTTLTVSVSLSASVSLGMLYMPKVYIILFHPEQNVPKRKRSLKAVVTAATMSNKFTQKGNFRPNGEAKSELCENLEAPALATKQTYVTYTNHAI

microsomal CLint [1]: 101 µL/min/mg | induction of dyskinesia in combination with L-dopa (optimal dose) ([2]; 25 to 100 mg/kg): without inducing dyskinesia | CaCo-2 efflux (pgp) (CaCo-2): no efflux | EC50 (human mGluR4; read-out: EC50 corresponding to pEC50 (converted)): ~76 nM | fraction unbound (plasma protein binding): < 0.01 | microsomal CLint [3]: 55 µL/min/mg | level of glucuronidation compared to PXT001858 [4]: much lower level of glucuronidation | Kp at 1.5 h [5, 6]: 6.5 | bioavailability ([5]; male, Sprague-Dawley, plasma, oral, 10 mg/kg p.o. vs 1 mg/kg i.v.): 39% | AUC(0-inf) [5, 7]: 432 ng·h/mL | Brain AUC inf ([5]; 10 mg/kg p.o.): 2713 ng·h/g | Cmax (Brain) ([5]; 10 mg/kg p.o.): 818 ng/G tissue | improvement in brain AUC compared to PXT001858 ([5]; 10 mg/kg p.o.): 3 fold | plasma Cmax relative to PXT001858 ([5]; 10 mg/kg p.o.): 0.7 fold | plasma exposure AUC relative to PXT001858 ([5]; 10 mg/kg p.o.): 1.1 fold | solubility (solubility in water): > 10000 µg/mL
SMILES: ON=c1cc(-c2cc3sccc3cn2)oc2ccc(CCCN3CCOCC3)cc12 [PXT002331, 6-(3-morpholin-4-yl-propyl)-2-(thieno[3,2-c]pyridin-6-yl)-4H-chromen-4-one oxime]
parkinsonian score, combined with suboptimal dose of L-dopa vs L-dopa (suboptimal dose) alone ([2]; 25 mg/kg p.o. + L-dopa 4-9 mg/kg, twice a day 4 days, day 4): considerable improvement in parkinsonian score | locomotor activity in combination with low or optimal dose of L-dopa ([2]; 25 mg/kg p.o., early stage PD monkey model, measured during 1 hour): significant improvement in locomotor activity | disability score in combination with L-dopa (optimal dose) ([2]; increasing doses, 25 to 100 mg/kg): improvement in the disability score | anti-parkinsonian activity (parkinsonian score), stand-alone treatment ([2]; p.o. twice a day for 4 days, score at day 4 over 2 h): potent anti-parkinsonian activity

EC50 (human mGluR4; read-out: pEC50 on human mGluR4 (converted)): 36.3 nM | fraction unbound (plasma protein binding): < 0.01 | Kp at 1.5 h [5, 6]: 2 | AUC(0-inf) [5, 7]: 394 ng·h/mL | Brain AUC inf ([5]; 10 mg/kg p.o.): 838 ng·h/g | Cmax (Brain) ([5]; 10 mg/kg p.o.): 521 ng/G tissue | solubility (solubility in water): > 10000 µg/mL
SMILES: O/N=c1\cc(-c2cc3sccc3cn2)oc2ccc(OCCN3CCOCC3)cc12 [PXT001858, reference compound]
